Source: patent publication US20260217686A1, “N-Myristoyltransferase Inhibitors And Methods Of Use” (Seattle Children's Hospital (d/b/a Seattle Children's …, priority 2022, published 2026)

What was measured:
PvNMT = molecular target: T1, PvNMT (Plasmodium vivax, UniProt A5K1A2); assay: biochemical; type: biochemical; settings: for SI**: enzyme selectivity calculated as HsNMT IC50/PvNMT IC50
T1 construct: Gly-Pro stays on the protein after cleavage) (N, cleaved yes); host or cells: E. coli Rosetta 2 (DE3) pRARE
From the text: NMT activity was indirectly measured through the detection of free CoA by the thiol-reactive probe 7-diethylamino-3-(4′-maleimidylphenyl)-4-methylcoumarin (CPM).
This study aimed to identify NMT is with high selectivity for the P. vivax enzyme compared with human NMTs and high potency against the different stages of the P. vivax parasite. For this purpose, a structure-guided approach was applied using previously reported NMT inhibitors as scaffolds to develop a new generation of PvNMT-targeting compounds. The NMT activity of these inhibitors was first measured using biochemical assays through the detection of free CoA by the thiol-reactive probe 7-diethylamino-3-(4′-maleimidylphenyl)-4-methylcoumarin (CPM). Their antiparasitic activity were further evaluated by measuring blood-stage parasite load and inhibition of P. vivax liver-stage schizont and hypnozoite infection. […] Cytotoxicity was assessed in the human hepatoma HepG2 cell line. Synchronized P. falciparum NF54 ring-stage parasites were used for measuring blood-stage parasite load. […] In vitro experiments were repeated at least twice. A single concentration of each inhibitor was initially used to evaluate the inhibition of P. vivax liver stage schizont and hypnozoite infection, followed by the determination of the dose-response relationship.
To measure the activity of the purified PvNMT an assay was adapted from the literature. […] Working stock solutions were made fresh adding DMSO for final concentrations of either 1% or 5% DMSO. […] The plate was incubated for 30 min at room temperature. The enzymatic reaction was initiated by adding 50 μL of reaction substrate containing 10 µM myrCoA and PfARF, as well as 8 μM CPM. Fluorescent readings were taken on a Spectra M2 plate reader (Molecular Devices) with excitation at 385 nm and emission at 485 nm. Fluorescent intensity was measured continuously in one-minute intervals for 45 minutes. Background fluorescence and noise were determined by replacing each constituent of the reaction individually with assay buffer containing 1% DMSO and values were deducted from experimental samples. The enzymatic reactions were set up with varying pHs (6.0-8.5) of the assay buffer to determine optimal reaction conditions with minimal background and off target reactions. In lieu of compound, 10 μL of 10% DMSO/H2O was added to each well. Fluorescence signal was obtained continuously for 45 min. […] IC50 calculations were calculated using Prism (GraphPad Software, Inc).

HsNMT1 = molecular target: T2, HsNMT1 (Homo sapiens, UniProt P30419); assay: NMT activity assay (CPM detection of free CoA), human NMT; type: biochemical; settings: Table 1; mean values of two or more determinations; read-out: HsNMT IC50 (nM)*
T2 construct: made in house
T2 sequence (P30419 1-496): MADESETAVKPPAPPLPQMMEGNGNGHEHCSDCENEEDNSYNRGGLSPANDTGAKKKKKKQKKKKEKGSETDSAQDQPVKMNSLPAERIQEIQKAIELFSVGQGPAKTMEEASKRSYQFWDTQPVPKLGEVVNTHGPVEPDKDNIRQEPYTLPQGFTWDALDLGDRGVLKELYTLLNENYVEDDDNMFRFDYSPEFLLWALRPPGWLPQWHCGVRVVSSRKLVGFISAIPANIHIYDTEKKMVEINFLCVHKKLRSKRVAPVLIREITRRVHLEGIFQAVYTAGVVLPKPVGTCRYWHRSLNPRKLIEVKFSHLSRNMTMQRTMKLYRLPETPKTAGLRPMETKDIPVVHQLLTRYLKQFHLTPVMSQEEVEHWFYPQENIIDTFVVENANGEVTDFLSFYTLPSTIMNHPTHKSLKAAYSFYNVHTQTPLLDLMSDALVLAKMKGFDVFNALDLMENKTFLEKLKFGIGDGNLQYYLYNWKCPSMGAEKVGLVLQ

[1] = Table 1, mean values of two or more determinations

T1 sequence (A5K1A2 entry or part of it): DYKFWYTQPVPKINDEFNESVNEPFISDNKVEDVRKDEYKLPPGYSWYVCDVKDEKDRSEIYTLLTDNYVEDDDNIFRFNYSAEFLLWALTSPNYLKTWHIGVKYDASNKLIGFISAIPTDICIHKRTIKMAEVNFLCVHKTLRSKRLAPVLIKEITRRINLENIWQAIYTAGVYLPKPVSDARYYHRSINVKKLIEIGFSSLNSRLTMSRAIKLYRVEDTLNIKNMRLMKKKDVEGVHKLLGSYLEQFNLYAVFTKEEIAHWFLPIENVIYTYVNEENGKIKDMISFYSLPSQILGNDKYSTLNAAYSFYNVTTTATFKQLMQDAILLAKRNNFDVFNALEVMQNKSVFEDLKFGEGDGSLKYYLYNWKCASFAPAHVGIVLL

| Compound | SI** (PvNMT; Table 1) | IC50 (PvNMT; [1]) [nM] | IC50 (HsNMT1) [nM] | selectivity index (SI) (PvNMT; ratio of IC50 values for HsNMT1 and PvNMT) | IC50 (PvNMT; Table 2) [nM] |
| --- | --- | --- | --- | --- | --- |
| 3-(2′-(3,5-dimethyl-1H-pyrazol-4-yl)ethoxy-4′-fluoro-[1,1′-biphenyl]-3-yl)piperazine [Compound 12p] | 62.7 | 368 | 23100 |  |  |
| Cc1nn(C)c(C)c1CCOc1cccnc1-c1ccnc(N2CCNCC2)c1 [Compound 12a, 2′-(piperazin-1-yl)-3-(2-(1,3,5-trimethyl-1H-pyrazol-4-yl)ethoxy)-2,4′-bipyridine] | 146.7 | 36.8 | 5400 |  |  |
| Cc1nn(C)c(C)c1CCOc1cccnc1-c1cccc(N2CCNCC2)c1 [Compound 12b, 1-(3-(3-(2-(1,3,5-trimethyl-1H-pyrazol-4-yl)ethoxy)pyridin-2-yl)phenyl)piperazine] |  | 80.2 | 20800 |  |  |
| Cc1nn(C)c(C)c1CCOc1ccccc1-c1ccnc(N2CCNCC2)c1 [Compound 12c, 1-(4-(2-(2-(1,3,5-trimethyl-1H-pyrazol-4-yl)ethoxy)phenyl)pyridin-2-yl)piperazine] | 63.1 | 9.48 | 599 |  |  |
| Cc1nn(C)c(C)c1CCOc1ccccc1-c1cccc(N2CCNCC2)c1 [Compound 12d, 1-(2′-(2-(1,3,5-trimethyl-1H-pyrazol-4-yl)ethoxy)-[1,1′-biphenyl]-3-yl)piperazine] | 153.4 | 48.5 | 7440 |  |  |
| Cc1nn(C)c(C)c1CCOc1cc(F)ccc1-c1ccnc(N2CCNCC2)c1 [Compound 12e, 1-(4-(4-fluoro-2-(2-(1,3,5-trimethyl-1H-pyrazol-4-yl)ethoxy)phenyl)pyridin-2-yl)piperazine] | 7.8 | 15.8 | 124 |  |  |
| Cc1nn(C)c(C)c1CCOc1cc(F)ccc1-c1cccc(N2CCNCC2)c1 [Compound 12f, 1-(4′-fluoro-2′-(2-(1,3,5-trimethyl-1H-pyrazol-4-yl)ethoxy)-[1,1′-biphenyl]-3-yl)piperazine] | 43.9 | 15.9 | 699 |  |  |
| c1cncc(CCOc2cccnc2-c2cccc(N3CCNCC3)c2)c1 [Compound 12g, 1-(3-(3-(2-(pyridin-3-yl)ethoxy)pyridin-2-yl)phenyl)piperazine] | 152.8 | 104 | 15900 |  |  |
| c1cncc(CCOc2cccnc2-c2ccnc(N3CCNCC3)c2)c1 [Compound 12h, 2′-(piperazin-1-yl)-3-(2-(pyridin-3-yl)ethoxy)-2,4′-bipyridine] | 90.9 | 441 | > 40000 |  |  |
| c1cncc(CCOc2ccccc2-c2cccc(N3CCNCC3)c2)c1 [Compound 12i, 1-(2′-(2-(pyridin-3-yl)ethoxy)-[1,1′-biphenyl]-3-yl)piperazine] |  | 1540 |  |  |  |
| c1cncc(CCOc2ccccc2-c2ccnc(N3CCNCC3)c2)c1 [Compound 12j, 1-(4-(2-(2-(pyridin-3-yl)ethoxy)phenyl)pyridin-2-yl)piperazine] | 220.6 | 124 | 27400 |  |  |
| Fc1ccc(-c2cccc(N3CCNCC3)c2)c(OCCc2cccnc2)c1 [Compound 12k, 1-(4′-fluoro-2′-(2-(pyridin-3-yl)ethoxy)-[1,1′-biphenyl]-3-yl)piperazine] |  | 3120 |  |  |  |
| Fc1ccc(-c2ccnc(N3CCNCC3)c2)c(OCCc2cccnc2)c1 [Compound 12l, 1-(4-(4-fluoro-2-(2-(pyridin-3-yl)ethoxy)phenyl)pyridin-2-yl)piperazine] | 73 | 23.4 | 1710 |  |  |
| Cc1n[nH]c(C)c1CCOc1cccnc1-c1cccc(N2CCNCC2)c1 [Compound 12m, 1-(3-(3-(2-(3,5-dimethyl-1H-pyrazol-4-yl)ethoxy)pyridin-2-yl)phenyl)piperazine] |  | 12500 |  |  |  |
| Cc1n[nH]c(C)c1CCOc1ccccc1-c1ccnc(N2CCNCC2)c1 [Compound 12n, 1-(4-(2-(2-(3,5-dimethyl-1H-pyrazol-4-yl)ethoxy)phenyl)pyridin-2-yl)piperazine] | 65.7 | 604 | 39700 |  |  |
| Cc1n[nH]c(C)c1CCOc1cccnc1-c1ccnc(N2CCNCC2)c1 [Compound 12o] |  | 3120 |  |  |  |
| Cc1nn(C)c(C)c1CCOc1ccccc1-c1cc(N2CCNCC2)ncn1 [Compound 16a, 4-(piperazin-1-yl)-6-(2-(2-(1,3,5-trimethyl-1H-pyrazol-4-yl)ethoxy)phenyl)pyrimidine] |  | 9390 |  |  |  |
| Cc1nn(C)c(C)c1CCOc1cc(F)ccc1-c1cc(N2CCNCC2)ncn1 [Compound 16b, 4-(4-fluoro-2-(2-(1,3,5-trimethyl-1H-pyrazol-4-yl)ethoxy)phenyl)-6-(piperazin-1-yl)pyrimidine] | 164.4 | 168 | 27600 | 164 |  |
| c1cncc(CCOc2ccccc2-c2cc(N3CCNCC3)ncn2)c1 [Compound 16c, 4-(piperazin-1-yl)-6-(2-(2-(pyridine-3-yl)ethoxy)phenyl)pyrimidine] |  | > 40000 |  |  |  |
| Fc1ccc(-c2cc(N3CCNCC3)ncn2)c(OCCc2cccnc2)c1 [Compound 16d, 4-(4-fluoro-2-(2-(pyridine-3-yl)ethoxy)phenyl)-6-(piperazin-1-yl)pyrimidine] |  | 3390 |  |  |  |
| Cc1n[nH]c(C)c1CCOc1cc(F)ccc1-c1cc(N2CCNCC2)ncn1 [Compound 16e, 4-(2-(2-(3,5-dimethyl-1H-pyrazol-4-yl)ethoxy)-4-fluorophenyl)-6-(piperazin-1-yl)pyrimidine] |  | 5070 |  |  |  |
| Cc1n[nH]c(C)c1CCOc1ccccc1-c1cc(N2CCNCC2)ncn1 [Compound 16f, 4-(2-(2-(3,5-dimethyl-1H-pyrazol-4-yl)ethoxy)phenyl)-6-(piperazin-1-yl)pyrimidine] |  | 14000 |  |  |  |
| CN(C)CCOc1cccc(-c2ncccc2OCCc2cccnc2)c1 [Compound 26d, N,N-dimethyl-2-(3-(3-(2-(pyridin-3-yl)ethoxy)pyridin-2-yl)phenoxy)ethan-1-amine] |  |  |  |  | 14800 |
| CN(C)CCOc1cccc(-c2ccccc2OCCc2cccnc2)c1 [Compound 26e, N,N-dimethyl-2-((2′-(2-(pyridin-3-yl)ethoxy)-[1,1′-biphenyl]-3-yl)oxy)ethan-1-amine] |  |  |  |  | 12800 |
| Cc1n[nH]c(C)c1CCOc1cccnc1-c1cccc(OCCN(C)C)c1 [Compound 26g, 2-(3-(3-(2-(3,5-dimethyl-1H-pyrazol-4-yl)ethoxy)pyridin-2-yl)phenoxy)-N,N-dimethylethan-1-amine] |  |  |  |  | 19400 |
| Cc1n[nH]c(C)c1CCOc1ccccc1-c1cccc(OCCN(C)C)c1 [Compound 26h, 2-((2′-(2-(3,5-dimethyl-1H-pyrazol-4-yl)ethoxy)-[1,1′-biphenyl]-3-yl)oxy)-N,N-dimethylethan-1-amine] |  |  |  |  | 1560 |
| Cc1nn(C)c(C)c1CCOc1ccc2ccccc2c1-c1cccc(OCCN(C)C)c1 [Compound 30b, N,N-dimethyl-2-(3-(2-(2-(1,3,5-trimethyl-1H-pyrazol-4-yl)ethoxy)naphthalen-1-yl)phenoxy)ethan-1-amine] |  |  |  |  | 19800 |
| CN(C)CCOc1cccc(-c2c(OCCc3cccnc3)ccc3ccccc23)c1 [Compound 30d, N,N-dimethyl-2-(3-(2-(2-(pyridin-3-yl)ethoxy)naphthalen-1-yl)phenoxy)ethan-1-amine] |  |  |  |  | 7210 |
| Cc1n[nH]c(C)c1CCOc1ccc2ccccc2c1-c1ccnc(N2CCNCC2)c1 [Compound 30e, 1-(4-(2-(2-(3,5-dimethyl-1H-pyrazol-4-yl)ethoxy)naphthalen-1-yl)pyridin-2-yl)piperazine] |  |  |  |  | 2880 |
| Cc1n[nH]c(C)c1CCOc1ccc2ccccc2c1-c1cccc(OCCN(C)C)c1 [Compound 30f, 2-(3-(2-(2-(3,5-dimethyl-1H-pyrazol-4-yl)ethoxy)naphthalen-1-yl)phenoxy)-N,N-dimethylethan-1-amine] |  |  |  |  | 25400 |
